The source of these data is PubChem BioAssay AID1421 (Emory University Molecular Libraries Screening Center, 2008).

The source made the active and inactive calls. No rule for the calls is given here.

For one assay, the target named is Prostaglandin E2 receptor EP2 subtype (Homo sapiens) (UniProt P43116). Kind of assay: compounds shifting PGE2 potency at EP2 – cell-based, human EP2, PGE2 EC50 shift, dose response (AID 1421). The settings on record: EP2-expressing cells, PGE2 EC50 shift by compound.
Chain of Prostaglandin E2 receptor EP2 subtype (Homo sapiens) (P43116 whole entry, looked up): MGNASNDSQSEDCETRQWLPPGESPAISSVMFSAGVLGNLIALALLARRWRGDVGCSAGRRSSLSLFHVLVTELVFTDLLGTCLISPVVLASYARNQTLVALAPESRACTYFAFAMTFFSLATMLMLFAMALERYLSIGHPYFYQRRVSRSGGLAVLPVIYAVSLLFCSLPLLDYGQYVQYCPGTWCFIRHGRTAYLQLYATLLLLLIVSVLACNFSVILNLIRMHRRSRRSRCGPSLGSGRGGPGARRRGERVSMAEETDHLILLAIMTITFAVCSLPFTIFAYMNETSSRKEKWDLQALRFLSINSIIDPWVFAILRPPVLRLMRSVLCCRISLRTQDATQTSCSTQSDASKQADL
With `C(=N\N(Cc1ccccc1)c1ccccc1)/c1cccnc1`, the outcome was active.
As to `CCOP(=O)(OCC)c1nc(-c2cccc3ccccc23)oc1NCc1ccc(OC)cc1`, the result was active.
On the same count and under the same terms, the entry for `CC(C)CCNC(=O)c1c(N)n(CC2CCCO2)c2nc3ccccc3nc12` (stereo not drawn) is “active”; for `CCOC(=O)c1c(C)[nH]c(C=O)c1Cc1cccc(Cl)c1` it is “active”.
For the molecule `COc1ccccc1CNc1cc(C)ccc1C`, the result was active.
Regarding `COC(=O)c1c(NC(=O)C2CC2)sc2c1CCCC2`, the result was active.
Still for that read-out and setting: the entry for `Cc1cc(C)cc(C(=N)c2ccccc2Cc2cccc3ccccc23)c1` is “active”; for `O=C(Nc1ccccc1Sc1ccccc1)c1ccc(F)cc1` it is “active”.
With `CSc1ncc2c(n1)-c1cc(C)ccc1SC2`, the result was active.
Same read-out and setting: the same measure for `CCOC(=O)c1cc(C)sc1NC(=O)c1ccc(Cl)s1`: “active”; for `Cc1ccccc1C(=N)c1ccccc1Cc1cccc2ccccc12`: “active”.
Same read-out and setting: the entry for `CC1CCC(C(C)C)C(OC(=O)COC(=O)c2ccc(=O)[nH]c2)C1` (stereo not drawn) is “active”; for `Cc1ccc(C(=O)c2c(NC(=O)c3ccncc3)sc3c2CCCC3)cc1` it is “active”.

Staying with this assay, now noted: EP2-expressing cells, PGE2 EC50 shift by compound; measured here: PGE2 EC50 at 6.7 uM compound.
`Cc1cccc(C(=O)c2cnc3ccccc3c2-c2ccccc2)c1`: the PGE2 EC50 with compound was found to be 0.95 nM.
`C=CCOc1c(Br)cc(/C=N/n2c(CC)n[nH]c2=S)cc1Br`: the PGE2 EC50 with compound was 0.81 nM.
Same read-out and setting: the same measure for `N#CCSc1nc2c(c(C3CC=CCC3)c1C#N)CCC2` (stereo not drawn): 1.45 nM.
The same measure, in the same setting: the same measure for `CCC(c1nnnn1C1CCCC1)N(Cc1cccs1)Cc1cc2cc(C)ccc2[nH]c1=O` (stereo not drawn): 0.33 nM; for `Cc1sc2ncnc(SCc3ccco3)c2c1C`: 1.33 nM; for `COc1ccc(Cl)cc1-n1c(C)ccc1C`: 1.06 nM.
Take `CCc1nc(SCC(=O)Nc2nc3c(s2)CCCC3)c2ccccc2n1`: the PGE2 EC50 with compound was 1.51 nM.
In the case of `O=C(CN1CCCCCCC1)Nc1ccc(Cl)cc1Cl`, the PGE2 EC50 with compound turned out to be 1.11 nM.
The same measure, in the same setting: the figure for `CO/N=C/C(=N\Nc1ccccc1)C(=O)c1ccccc1` is 0.59 nM; for `Cn1c(CNc2ccc(F)cc2)nnc1SCC(=O)NNC(=O)Cc1ccccc1` it is 1.63 nM.
On the same count and under the same terms, the figure for `CC1(C)Cc2c(C#N)c(N3CCCC3)nc(-c3ccco3)c2CO1` is 2.33 nM.
In the case of `Cc1ccc(S(=O)(=O)c2ccc(Oc3cccc(C)c3)cc2)cc1`, the PGE2 EC50 with compound came to 1.41 nM.
On to `C(=N\N(Cc1ccccc1)c1ccccc1)/c1cccnc1`, for which the PGE2 EC50 with compound came out at 1.34 nM.
The same measure, in the same setting: the figure for `CCOP(=O)(OCC)c1nc(-c2cccc3ccccc23)oc1NCc1ccc(OC)cc1` is 0.72 nM.
The same measure, in the same setting: the figure for `CCOC(=O)c1c(N)nn(C(=O)C(C)(C)C)c1-c1ccccc1` is 0.96 nM; for `CC1(C)C=Cc2c(c3c(c4c(=O)c(-c5ccc(O)cc5)coc24)OC(C)(C)CC3)O1` it is 1.11 nM; for `COC(=O)c1cc(Br)c(=O)n(-c2nccs2)c1` it is 2.71 nM.
Still for that read-out and setting: the same measure for `Cc1cccc(-n2c(CCc3ccccc3)nnc2SCC(=O)c2ccccc2)c1`: 1.16 nM; for `O=C(O)c1nc2nc(Cl)c(Cl)nc2[nH]1`: 1.28 nM.
Consider `CC(C)CCNC(=O)c1c(N)n(CC2CCCO2)c2nc3ccccc3nc12` (stereo not drawn), for which the PGE2 EC50 with compound stood at 0.95 nM.
On the same count and under the same terms, the same measure for `COC(=O)c1nc(NC(=O)C(C)(C)C)n[nH]1`: 2.41 nM.
Same read-out and setting: the figure for `CCOC(=O)c1c(C)[nH]c(C=O)c1Cc1cccc(Cl)c1` is 0.98 nM; for `CCOC(=O)C1=C(CC)Nc2ccccc2N=C1NC(=O)c1oc2ccccc2c1C` it is 1.19 nM; for `COc1ccccc1CNc1cc(C)ccc1C` it is 0.77 nM.
As for `CCc1nnc2n1N=C(c1ccc(-c3cc(Cl)ccc3Cl)o1)CS2`, the PGE2 EC50 with compound came to 0.89 nM.
Same read-out and setting: the figure for `CCOC(=O)c1c(NC(=O)CN(CC)CC)sc2c1CCN(C(=O)OCC)C2` is 1.34 nM; for `CCOP(=O)(OCC)c1nc(/C=C/c2ccccc2)oc1NCc1ccccc1` it is 1.27 nM; for `COc1cccc(-c2nc(N3CC(C)CC(C)C3)c3ccccc3n2)c1O` (stereo not drawn) it is 1.33 nM.
Still for that read-out and setting: the same measure for `NC(N)=Nc1nc(CSCC/C(N)=N/S(N)(=O)=O)cs1`: 0.78 nM; for `O=C(Nc1ccccc1-c1nc2ccccc2s1)C1=COCCO1`: 0.46 nM; for `CCCCn1c(=O)c(C(=O)NCc2ccco2)c(O)c2ccccc21`: 2.62 nM.
The same measure, in the same setting: the figure for `Cc1ccc(-c2csc3ncnc(N4CCc5ccccc5C4)c23)cc1` is 0.93 nM; for `CCOC(=O)CSc1nnc2n(C3CCCCC3)c(=O)c3c4c(sc3n12)CCCC4` it is 1.13 nM.
Turning to `Brc1ccccc1Cn1c(-c2cscn2)nc2ccccc21`, the PGE2 EC50 with compound was determined as 0.94 nM.
The same measure, in the same setting: the same measure for `O=C(c1ccco1)N1N=C(c2ccc(Br)cc2)CC1(O)C(F)(F)F` (stereo not drawn): 0.84 nM; for `Cc1sc2ncnc(Sc3ccccc3C(=O)O)c2c1C`: 2.7 nM; for `Cc1ccc(OCC(=O)NNC(=O)C2CCN(c3ncccn3)CC2)cc1`: 0.81 nM.
On the same count and under the same terms, the same measure for `CC(=O)c1cc(C#N)c(SCc2ccccc2)nc1C`: 0.83 nM; for `c1ccc(-c2csc3ncnc(N4CCc5ccccc5C4)c23)cc1`: 1.1 nM.
As to `COc1ccc(-n2c(COc3ccc(Cl)cc3)nnc2SCc2ccc(C#N)cc2)cc1`, the PGE2 EC50 with compound was 1.22 nM.
Take `O=c1c2ccccc2c2ccccc2c(=O)n1Cc1ccco1`: the PGE2 EC50 with compound was found to be 1.09 nM.
Same read-out and setting: the same measure for `C[C@H](N)[C@H](O)c1ccc(O)c(O)c1`: 1.32 nM.
On to `O=C(N/N=C/c1ccc[nH]1)c1ccccc1OCc1ccccc1Cl`, for which the PGE2 EC50 with compound was determined as 2.65 nM.
On the same count and under the same terms, the same measure for `COc1ccc(C(=O)c2cnc3ccccc3c2-c2ccccc2)cc1`: 0.59 nM.
Same read-out and setting: the same measure for `CCOC(=O)c1c(NC(=O)CN2C(=O)NC3(CCCCCC3)C2=O)sc(C)c1-c1ccc(C)cc1`: 0.76 nM; for `COc1ccc(-c2nn3c(-c4ccccc4)nnc3s2)cc1`: 0.66 nM.
The same measure, in the same setting: the same measure for `CC(=O)Nc1ccc(C2=NN(c3ccccc3)C(c3cccs3)C2)cc1` (stereo not drawn): 0.65 nM; for `COc1ccc(C(=O)COC(=O)C(CCSC)NS(=O)(=O)c2ccc(Cl)cc2)cc1` (stereo not drawn): 2.2 nM; for `CC12CCCC(O)(C1)C1CC(C)(C)C1CC2` (stereo not drawn): 1.55 nM.
For the molecule `CCCSc1nc(N2CCCC2)c2c(c1C#N)CC(C)(C)OC2`, the PGE2 EC50 with compound came out at 1.15 nM.
As for `COC(=O)c1c(NC(=O)C2CC2)sc2c1CCCC2`, the PGE2 EC50 with compound was found to be 0.95 nM.
On the same count and under the same terms, the figure for `COc1ccc(N(Cc2ccccc2)S(=O)(=O)c2ccc(C)cc2)cc1` is 1.05 nM.
Still for that read-out and setting: the figure for `O=C(COc1ccccc1)Nc1ccccc1Oc1ccccc1` is 1.41 nM.
As for `CCCC/C(=N\NC(=O)c1ccc(Br)o1)c1ccccc1`, the PGE2 EC50 with compound came to 2.49 nM.
Turning to `C=CCn1c(-c2oc3nc(-c4ccccc4)cc(-c4ccccc4)c3c2N)n[nH]c1=S`, the PGE2 EC50 with compound worked out at 1.45 nM.
On the same count and under the same terms, the same measure for `Cc1cc(C)cc(C(=N)c2ccccc2Cc2cccc3ccccc23)c1`: 1.22 nM; for `CCOC(=O)c1c(CC(C)C)csc1NC(=O)CCl`: 1.13 nM; for `O=C(Nc1ccccc1Sc1ccccc1)c1ccc(F)cc1`: 0.97 nM.
Still for that read-out and setting: the same measure for `COc1ccc(C2=Nn3c(nnc3-c3ccc(OC)cc3)SC2)cc1`: 1.28 nM.
Still for that read-out and setting: the figure for `CSc1ncc2c(n1)-c1cc(C)ccc1SC2` is 0.93 nM.
Consider `CC1Cc2ccccc2N1CC(=O)NC(c1ccccc1)c1ccccc1` (stereo not drawn), for which the PGE2 EC50 with compound came to 1.48 nM.
The same measure, in the same setting: the same measure for `CCOC(=O)c1cc(C)sc1NC(=O)c1ccc(Cl)s1`: 0.73 nM; for `CCOc1ccccc1NC(=O)c1ccccc1-c1nc(-c2ccccc2)no1`: 1.14 nM.
The same measure, in the same setting: the figure for `c1cncc(-c2nc(N3CCOCC3)c3c4c(sc3n2)CCC4)c1` is 1.15 nM.
On the same count and under the same terms, the figure for `Cc1cccc(OC(=O)c2sc(Cl)nc2C)c1` is 0.83 nM; for `CSc1nc(Oc2ccc(F)cc2)c2ccccc2n1` it is 0.61 nM.
Consider `O=C(O)CSc1cc(-c2ccccc2)nc2ccccc12`, for which the PGE2 EC50 with compound stood at 2.55 nM.
Same read-out and setting: the figure for `Cc1cccc(Oc2sc(C(=O)c3ccccc3)c(N)c2C#N)c1` is 1.51 nM.
Same read-out and setting: the same measure for `Cc1ccc(C(Sc2ccccc2)C(Cn2cncn2)C(=O)c2ccccc2)cc1` (stereo not drawn): 0.97 nM; for `CCCc1nc(SC2CCCC2)c2c(=O)n(C)c(=O)n(C)c2n1`: 0.75 nM; for `O=C(Nc1ccccc1N1CCCCC1)c1ccc(F)cc1`: 1.01 nM.
Same read-out and setting: the same measure for `Cc1cc(C)c(C)c(Cn2c(CO)nc3ccccc32)c1C`: 0.6 nM.
Regarding `Cc1ccccc1C(=N)c1ccccc1Cc1cccc2ccccc12`, the PGE2 EC50 with compound was found to be 0.33 nM.
Still for that read-out and setting: the figure for `Cc1ccc2oc(=O)n(Cc3ccccc3OC(C)C)c2c1` is 0.64 nM; for `CC1CCC(C(C)C)C(OC(=O)COC(=O)c2ccc(=O)[nH]c2)C1` (stereo not drawn) it is 1.4 nM.
Consider `COC(=O)c1ccc(-n2nc(C(F)(F)F)c3c2-c2ccoc2CC3)cc1`, for which the PGE2 EC50 with compound came out at 0.79 nM.
The same measure, in the same setting: the same measure for `CCCCN1C=C(C(=O)OC)C(c2ccccc2Cl)C(C(=O)OC)=C1`: 2.72 nM.
In the case of `Nc1c(C(=O)Nc2ccccc2F)sc2nc(Cc3ccccc3)cc(C(F)(F)F)c12`, the PGE2 EC50 with compound worked out at 0.62 nM.
Consider `Cc1ccc(Cl)cc1NC1=NC(=S)N(C(C)C)C12CCCCC2`, for which the PGE2 EC50 with compound turned out to be 0.77 nM.
The same measure, in the same setting: the figure for `Brc1ccc(-c2ccc(/C=N/Nc3nc(N4CCOCC4)nc(N4CCOCC4)n3)o2)cc1` is 1.01 nM.
In the case of `Cc1ccc(C(=O)c2c(NC(=O)c3ccncc3)sc3c2CCCC3)cc1`, the PGE2 EC50 with compound is 0.66 nM.
Still for that read-out and setting: the figure for `CCOC(=O)c1ccccc1NC(=O)COc1ccccc1` is 1.04 nM; for `Cc1cccc(Cn2c(Cc3ccccc3)nc3ccccc32)c1` it is 0.71 nM.
Still for that read-out and setting: the same measure for `CCOC(=O)c1ccccc1NC1c2ccccc2C(=O)N1c1cc(C)ccn1` (stereo not drawn): 1.13 nM; for `O=C(CSc1nc(Cc2ccccc2)nc2ccccc12)c1ccc2c(c1)OCCO2`: 1.23 nM; for `Cc1cc(NC(=O)C2=C(O)c3ccccc3S(=O)(=O)N2C)no1`: 1.8 nM.
On the same count and under the same terms, the same measure for `O=C(O)CSc1ccc2ccccc2n1`: 2.79 nM.
As to `CCOC(=O)c1c(CC(C)C)csc1/N=C/C1C(=O)CCCC1=O`, the PGE2 EC50 with compound stood at 1 nM.
On the same count and under the same terms, the figure for `COc1ccc(C2=Nn3c(nnc3-c3ccccc3)SC2)cc1OC` is 2.63 nM; for `COc1ccc(-c2nnc(N3CCC(C)CC3)c3ccccc23)cc1` it is 1.15 nM.
